Columns and labels:
Assay in all cases: relative viability (nuclei count vs DMSO), 5 days (fraction); higher = more cells survive
[1] = compound: COC1=CC=C(C=C1)COC2=C(C=C(C=C2)CC3=CN=C(N=C3N)N)OC [GW-2580] + CS(=O)(=O)CCNCc1ccc(-c2ccc3ncnc(Nc4ccc(OCc5cccc(F)c5)c(Cl)c4)c3c2)o1 [Lapatinib] (partner 2 µM)
How it was run: (§1)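 Lung cancer cell lines were seeded in 1536-well plates and dosed by pin tool the next day, with either a single drug or a fixed anchor-drug dose combined with five library-drug doses (not always all listed) spaced in √10 steps. Five days later, one step fixed the cells and stained their nuclei (final 0.05% Triton X-100, 1% formaldehyde, 1 ug/ml Hoechst), and nuclei were counted on 4× images. Relative viability is the nuclei count in treated wells divided by the count in vehicle wells, and each value is the median of duplicate plates.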

[2] = compound: Cc1cnc(Nc2ccc(OCCN3CCCC3)cc2)nc1Nc1cccc(S(=O)(=O)NC(C)(C)C)c1 [Fedratinib] + CCNC(=O)c1noc(-c2cc(C(C)C)c(O)cc2O)c1-c1ccc(CN2CCOCC2)cc1 [Luminespib] (partner 0.01 µM)
How it was run: as §1

[3] = compound: Cc1cnc(Nc2ccc(OCCN3CCCC3)cc2)nc1Nc1cccc(S(=O)(=O)NC(C)(C)C)c1 [Fedratinib] + Cc1nc(Nc2ncc(C(=O)Nc3c(C)cccc3Cl)s2)cc(N2CCN(CCO)CC2)n1 [Dasatinib] (partner 0.075 µM)
How it was run: as §1

[4] = compound: COC1=CC=C(C=C1)COC2=C(C=C(C=C2)CC3=CN=C(N=C3N)N)OC [GW-2580] + CC1(C)CCC(c2ccc(Cl)cc2)=C(CN2CCN(c3ccc(C(=O)NS(=O)(=O)c4ccc(N[C@H](CCN5CCOCC5)CSc5ccccc5)c(S(=O)(=O)C(F)(F)F)c4)cc3)CC2)C1 [Navitoclax] (partner 0.5 µM)
How it was run: as §1

[5] = compound: COC1=CC=C(C=C1)COC2=C(C=C(C=C2)CC3=CN=C(N=C3N)N)OC [GW-2580] + O=C(CCCCCCC(=O)Nc1ccccc1)NO [Vorinostat] (partner 1 µM)
How it was run: as §1

## BEN
[1]; first compound 0.08 µM
  relative viability: 0.642
[1]; first compound 0.8 µM
  relative viability: 0.795
[1]; first compound 2.53 µM
  relative viability: 0.481
[1]; first compound 8 µM
  relative viability: 0.709
[2]; first compound 0.1 µM
  relative viability: 0.312
[2]; first compound 0.3162 µM
  relative viability: 0.248
[2]; first compound 1 µM
  relative viability: 0.263
[3]; first compound 0.1 µM
  relative viability: 0.36
[3]; first compound 0.3162 µM
  relative viability: 0.312
[3]; first compound 1 µM
  relative viability: 0.294
[4]; first compound 0.08 µM
  relative viability: 0.0663
[4]; first compound 0.8 µM
  relative viability: 0.486
[4]; first compound 2.53 µM
  relative viability: 0.0634
[4]; first compound 8 µM
  relative viability: 0.0526
[5]; first compound 0.08 µM
  relative viability: 0.587
[5]; first compound 0.8 µM
  relative viability: 0.565
[5]; first compound 2.53 µM
  relative viability: 0.559
[5]; first compound 8 µM
  relative viability: 0.633

## NCI-H23
[1]; first compound 0.08 µM
  relative viability: 1.03
[1]; first compound 0.8 µM
  relative viability: 1.09
[1]; first compound 2.53 µM
  relative viability: 0.936
[1]; first compound 8 µM
  relative viability: 1.25
[2]; first compound 0.1 µM
  relative viability: 0.193
[2]; first compound 0.3162 µM
  relative viability: 0.212
[2]; first compound 1 µM
  relative viability: 0.204
[3]; first compound 0.1 µM
  relative viability: 0.805
[3]; first compound 0.3162 µM
  relative viability: 0.415
[3]; first compound 1 µM
  relative viability: 0.911
[4]; first compound 0.08 µM
  relative viability: 0.77
[4]; first compound 0.8 µM
  relative viability: 0.75
[4]; first compound 2.53 µM
  relative viability: 0.774
[4]; first compound 8 µM
  relative viability: 0.87
[5]; first compound 0.08 µM
  relative viability: 0.53
[5]; first compound 0.8 µM
  relative viability: 0.782
[5]; first compound 2.53 µM
  relative viability: 0.462
[5]; first compound 8 µM
  relative viability: 0.546

## NCI-H1395
[1]; first compound 0.08 µM
  relative viability: 0.994
[1]; first compound 0.8 µM
  relative viability: 0.95
[1]; first compound 2.53 µM
  relative viability: 0.88
[1]; first compound 8 µM
  relative viability: 0.912
[2]; first compound 0.1 µM
  relative viability: 0.661
[2]; first compound 0.3162 µM
  relative viability: 0.868
[2]; first compound 1 µM
  relative viability: 0.62
[3]; first compound 0.1 µM
  relative viability: 0.36
[3]; first compound 0.3162 µM
  relative viability: 0.45
[3]; first compound 1 µM
  relative viability: 0.378
[4]; first compound 0.08 µM
  relative viability: 1.08
[4]; first compound 0.8 µM
  relative viability: 1.06
[4]; first compound 2.53 µM
  relative viability: 1.13
[4]; first compound 8 µM
  relative viability: 1.11
[5]; first compound 0.08 µM
  relative viability: 0.669
[5]; first compound 0.8 µM
  relative viability: 0.662
[5]; first compound 2.53 µM
  relative viability: 0.623
[5]; first compound 8 µM
  relative viability: 0.742

## 201T
[1]; first compound 0.08 µM
  relative viability: 1.09
[1]; first compound 0.8 µM
  relative viability: 1.11
[1]; first compound 2.53 µM
  relative viability: 0.983
[1]; first compound 8 µM
  relative viability: 1.06
[2]; first compound 0.1 µM
  relative viability: 1
[2]; first compound 0.3162 µM
  relative viability: 1.06
[2]; first compound 1 µM
  relative viability: 1.02
[3]; first compound 0.1 µM
  relative viability: 0.515
[3]; first compound 0.3162 µM
  relative viability: 0.571
[3]; first compound 1 µM
  relative viability: 0.545
[4]; first compound 0.08 µM
  relative viability: 1.24
[4]; first compound 0.8 µM
  relative viability: 1.25
[4]; first compound 2.53 µM
  relative viability: 1.23
[4]; first compound 8 µM
  relative viability: 1.2
[5]; first compound 0.08 µM
  relative viability: 1.01
[5]; first compound 0.8 µM
  relative viability: 0.949
[5]; first compound 2.53 µM
  relative viability: 0.992
[5]; first compound 8 µM
  relative viability: 0.883

## NCI-H2170
[1]; first compound 0.08 µM
  relative viability: 0.26
[1]; first compound 0.8 µM
  relative viability: 0.258
[1]; first compound 2.53 µM
  relative viability: 0.261
[1]; first compound 8 µM
  relative viability: 0.274
[2]; first compound 0.1 µM
  relative viability: 0.651
[2]; first compound 0.3162 µM
  relative viability: 0.677
[2]; first compound 1 µM
  relative viability: 0.648
[3]; first compound 0.1 µM
  relative viability: 0.566
[3]; first compound 0.3162 µM
  relative viability: 0.416
[3]; first compound 1 µM
  relative viability: 0.339
[4]; first compound 0.08 µM
  relative viability: 0.5
[4]; first compound 0.8 µM
  relative viability: 0.68
[4]; first compound 2.53 µM
  relative viability: 0.467
[4]; first compound 8 µM
  relative viability: 0.657
[5]; first compound 0.08 µM
  relative viability: 0.932
[5]; first compound 0.8 µM
  relative viability: 0.903
[5]; first compound 2.53 µM
  relative viability: 0.64
[5]; first compound 8 µM
  relative viability: 0.775

## NCI-H460
[1]; first compound 0.08 µM
  relative viability: 1.86
[1]; first compound 0.8 µM
  relative viability: 1.31
[1]; first compound 2.53 µM
  relative viability: 0.689
[1]; first compound 8 µM
  relative viability: 1.01
[2]; first compound 0.1 µM
  relative viability: 0.0244
[2]; first compound 0.3162 µM
  relative viability: 0.0389
[2]; first compound 1 µM
  relative viability: 0.0213
[3]; first compound 0.1 µM
  relative viability: 0.496
[3]; first compound 0.3162 µM
  relative viability: 0.415
[3]; first compound 1 µM
  relative viability: 0.329
[4]; first compound 0.08 µM
  relative viability: 1.46
[4]; first compound 0.8 µM
  relative viability: 1.37
[4]; first compound 2.53 µM
  relative viability: 0.941
[4]; first compound 8 µM
  relative viability: 1.15
[5]; first compound 0.08 µM
  relative viability: 0.85
[5]; first compound 0.8 µM
  relative viability: 1.11
[5]; first compound 2.53 µM
  relative viability: 0.721
[5]; first compound 8 µM
  relative viability: 0.631

## HCC-15
[1]; first compound 0.08 µM
  relative viability: 0.87
[1]; first compound 0.8 µM
  relative viability: 1.08
[1]; first compound 2.53 µM
  relative viability: 0.807
[1]; first compound 8 µM
  relative viability: 0.866
[2]; first compound 0.1 µM
  relative viability: 0.114
[2]; first compound 0.3162 µM
  relative viability: 0.247
[2]; first compound 1 µM
  relative viability: 0.381
[3]; first compound 0.1 µM
  relative viability: 0.508
[3]; first compound 0.3162 µM
  relative viability: 0.58
[3]; first compound 1 µM
  relative viability: 0.337
[4]; first compound 0.08 µM
  relative viability: 0.751
[4]; first compound 0.8 µM
  relative viability: 0.79
[4]; first compound 2.53 µM
  relative viability: 0.656
[4]; first compound 8 µM
  relative viability: 0.712
[5]; first compound 0.08 µM
  relative viability: 0.866
[5]; first compound 0.8 µM
  relative viability: 1.07
[5]; first compound 2.53 µM
  relative viability: 0.787
[5]; first compound 8 µM
  relative viability: 0.75

## EPLC-272H
[1]; first compound 0.08 µM
  relative viability: 1.13
[1]; first compound 0.8 µM
  relative viability: 1.04
[1]; first compound 2.53 µM
  relative viability: 0.886
[1]; first compound 8 µM
  relative viability: 0.916
[2]; first compound 0.1 µM
  relative viability: 0.208
[2]; first compound 0.3162 µM
  relative viability: 0.167
[2]; first compound 1 µM
  relative viability: 0.205
[3]; first compound 0.1 µM
  relative viability: 0.364
[3]; first compound 0.3162 µM
  relative viability: 0.345
[3]; first compound 1 µM
  relative viability: 0.0536
[4]; first compound 0.08 µM
  relative viability: 1.18
[4]; first compound 0.8 µM
  relative viability: 1.08
[4]; first compound 2.53 µM
  relative viability: 1.11
[4]; first compound 8 µM
  relative viability: 1.11
[5]; first compound 0.08 µM
  relative viability: 0.381
[5]; first compound 0.8 µM
  relative viability: 0.409
[5]; first compound 2.53 µM
  relative viability: 0.301
[5]; first compound 8 µM
  relative viability: 0.334

— the supplement of paper PMC10307832
